The values that follow come from patent US6476242B1 (Bristol-Myers Squibb Company, priority 1997, dated 2002).

The subject of one assay is 116/VM46. Description: 116/VM46 activity, resistant line (Table 1). To be noted: for IC50: 116/VM46 cells, unit inferred; for R/S ratio: ratio 116/VM46 (resistant) to HCT116 (sensitive). In kind it is cell-based.
The test system of another assay is Tubulin. Description: Tubulin Data (Table 1). The assay is classed as biochemical. To be noted: ratio analog/paclitaxel for tubulin data.
A further assay has as its system HCT116. The assay is described as follows: HCT116 activity (Table 1). To be noted: for IC50: HCT116 cells, unit inferred; for anal/PT (beside HCT116 and 116/VM46): ratio analog/paclitaxel in HCT116. In kind it is cell-based.

Values joined by “and” are separate entries in the source; they are usually repeats but may differ in a detail not shown here. Equal entries are not always repeated.

As usually defined, the IC50 is the concentration that inhibits the measured activity by half. For the compound `COC(=O)O[C@@]12CO[C@@H]1C[C@H](O)[C@@]1(C)C(=O)[C@H](OC(C)=O)C3=C(C)[C@@H](OC(=O)[C@H](O)[C@@H](NC(=O)c4ccccc4)c4ccccc4)C[C@@](O)([C@@H](OC(=O)c4cccc(C)c4)[C@H]21)C3(C)C` [MC-134-68, 2-(m-methylbenzoyl)-4-MeOCO-PT], in the assay with 116/VM46, the IC50 was 44 nM and the R/S ratio is recorded as 21. The “anal/PT (beside Tubulin Data)” value with Tubulin came to 0.8. For the same compound, the IC50 with HCT116 is 2.1 nM.
Taken in the same sequence, the figures for `COc1cccc(C(=O)O[C@H]2[C@@H]3[C@]4(OC(=O)C5CC5)CO[C@@H]4C[C@H](O)[C@@]3(C)C(=O)[C@H](OC(C)=O)C3=C(C)[C@@H](OC(=O)[C@H](O)[C@@H](NC(=O)c4ccccc4)c4ccccc4)C[C@]2(O)C3(C)C)c1` [MC-134-45, 2-(m-methoxybz)-4-cyclopropylCO-PT] were 40 nM, 20, 1.3 and 2 nM.
In the case of `CC(=O)OC1C(=O)C2(C)C(O)CC3OCC3(OC(=O)C3CC3)C2C(OC(=O)c2ccc(F)cc2F)C2(O)CC(OC(=O)C(O)C(NC(=O)c3ccccc3)c3ccccc3)C(C)=C1C2(C)C` (stereo not shown) [MC-134-248, 2-(2,4-difluorobz)-4-cyclopropylCO-PT], in the assay with 116/VM46, the IC50 worked out at 8.2 nM and the R/S ratio came to 3.86. The “anal/PT (beside Tubulin Data)” value with Tubulin was 0.2. Also, in the assay with HCT116, the IC50 was found to be 2.1 nM; the “anal/PT (beside HCT116 and 116/VM46)” value was 1.03.
For `CC(=O)OC1C(=O)C2(C)C(O)CC3OCC3(OC(=O)c3cccc(Cl)c3)C2C(OC(=O)c2cccc(Cl)c2)C2(O)CC(OC(=O)C(O)C(NC(=O)c3ccccc3)c3ccccc3)C(C)=C1C2(C)C` (stereo not shown) [MC-134-277, 2-(m-Cl-benzoyl)-4-(m-Cl-benzoyl)PT], the IC50 in the assay with 116/VM46 worked out at 2460 nM; in the assay with HCT116, 2430 nM. Further, the “anal/PT (beside Tubulin Data)” value in the assay on Tubulin is given as 144.
For `COc1ccc(OC)c(C(=O)O[C@H]2[C@@H]3[C@]4(OC(=O)C5CC5)CO[C@@H]4C[C@H](O)[C@@]3(C)C(=O)[C@H](OC(C)=O)C3=C(C)[C@@H](OC(=O)[C@H](O)[C@@H](NC(=O)c4ccccc4)c4ccccc4)C[C@]2(O)C3(C)C)c1` [MC-134-250, 2-(2,5-dimethoxybz)-4-cyclopropylCO-PT], in the assay with 116/VM46, half-maximal inhibition (IC50) required 45.1 nM and the R/S ratio was 25.06. Moreover, in the assay on Tubulin, the “anal/PT (beside Tubulin Data)” value was found to be 0.5. Also, in the assay with HCT116, the IC50 amounted to 1.8 nM; the “anal/PT (beside HCT116 and 116/VM46)” value amounted to 0.78.
For the compound `COC(=O)O[C@@]12CO[C@@H]1C[C@H](O)[C@@]1(C)C(=O)[C@H](OC(C)=O)C3=C(C)[C@@H](OC(=O)[C@H](O)[C@@H](NC(=O)c4ccccc4)c4ccccc4)C[C@@](O)([C@@H](OC(=O)c4cccc(OC)c4)[C@H]21)C3(C)C` [MC-134-61, 2-(m-methoxybenzoyl)-4-MeOCO-PT], in the assay on 116/VM46, the R/S ratio worked out at 129. In the assay with Tubulin, the “anal/PT (beside Tubulin Data)” value amounted to 0.9. The IC50 in the assay on HCT116 was 6.7 nM and 4.4 nM.
As for `CC(=O)O[C@H]1C(=O)[C@@]2(C)[C@H]([C@H](OC(=O)c3ccccc3)[C@]3(O)C[C@H](OC(=O)[C@H](O)[C@@H](NC(=O)c4ccccc4)c4ccccc4)C(C)=C1C3(C)C)[C@]1(OC(C)=O)CO[C@@H]1C[C@@H]2O` [paclitaxel (PT), paclitaxel, reference compound], the IC50 with 116/VM46 was found to be 203 nM; in the assay with HCT116 it was 2 nM. Besides, in the assay on Tubulin, the “anal/PT (beside Tubulin Data)” value was determined as 1.
On to `COC(=O)OC12COC1CC(O)C1(C)C(=O)C(OC(C)=O)C3=C(C)C(OC(=O)C(O)C(NC(=O)c4ccccc4)c4ccccc4)CC(O)(C(OC(=O)c4cccc(Cl)c4)C21)C3(C)C` (stereo not shown) [MC-134-100, 2-m-chloro-4-MeOCO-PT], for which, in the assay on 116/VM46, the IC50 was found to be 82 nM and the R/S ratio is 37. Moreover, in the assay on Tubulin, the “anal/PT (beside Tubulin Data)” value stood at 0.4. The same compound yielded an IC50 in the assay on HCT116 of 2.2 nM.
As to `CC(=O)O[C@H]1C(=O)[C@@]2(C)[C@H]([C@H](OC(=O)c3cccc(Cl)c3)[C@]3(O)C[C@H](OC(=O)[C@H](O)[C@@H](NC(=O)c4ccccc4)c4ccccc4)C(C)=C1C3(C)C)[C@]1(OC(=O)C3CC3)CO[C@@H]1C[C@@H]2O` [MC-134-92, 2-m-chloro-4-cyclopropylCO-PT], in the assay with 116/VM46, the IC50 is 30 nM and < 16 nM; the R/S ratio is on record as 18. Moreover, the “anal/PT (beside Tubulin Data)” value in the assay on Tubulin was 0.06. In addition, the IC50 with HCT116 is 1.7 nM and 1.1 nM.
Regarding `CC(=O)O[C@H]1C(=O)[C@@]2(C)[C@H]([C@H](OC(=O)c3cccc(N=[N+]=[N-])c3)[C@]3(O)C[C@H](OC(=O)[C@H](O)[C@@H](NC(=O)c4ccccc4)c4ccccc4)C(C)=C1C3(C)C)[C@]1(OC(=O)C3CC3)CO[C@@H]1C[C@@H]2O` [MC-134-91, 2-m-azido-4-cyclopropylCO-PT], in the assay on 116/VM46, the 50% inhibitory concentration (IC50) is 28 nM and < 16 nM; the R/S ratio stood at 10.4. For the same compound, the “anal/PT (beside Tubulin Data)” value with Tubulin stood at 0.08.
For the compound `CSC(=S)O[C@@]12CO[C@@H]1C[C@H](O)[C@@]1(C)C(=O)[C@H](OC(C)=O)C3=C(C)[C@@H](OC(=O)[C@H](O)[C@@H](NC(=O)c4ccccc4)c4ccccc4)C[C@@](O)([C@@H](OC(=O)c4cccc(Cl)c4)[C@H]21)C3(C)C` [MC-134-238, 2-(m-chlorobenzoyl-4-xanthyl)PT], in the assay on 116/VM46, the IC50 came to 58.6 nM and the R/S ratio is 10.34. The “anal/PT (beside Tubulin Data)” value in the assay with Tubulin is on record as 3.5. In addition, in the assay with HCT116, the IC50 was 5.7 nM; the “anal/PT (beside HCT116 and 116/VM46)” value was 3.72.
The like results for `COc1cccc(C(=O)O[C@H]2[C@@H]3[C@]4(OC(=S)SC)CO[C@@H]4C[C@H](O)[C@@]3(C)C(=O)[C@H](OC(C)=O)C3=C(C)[C@@H](OC(=O)[C@H](O)[C@@H](NC(=O)c4ccccc4)c4ccccc4)C[C@]2(O)C3(C)C)c1` [MC-134-229, 2-(m-methoxybenzoyl-4-xanthyl)PT] were, in that order, 53.2 nM, 11.32, 8.9, 4.7 nM and 3.08.
Regarding `CSC(=S)O[C@@]12CO[C@@H]1C[C@H](O)[C@@]1(C)C(=O)[C@H](OC(C)=O)C3=C(C)[C@@H](OC(=O)[C@H](O)[C@@H](NC(=O)c4ccccc4)c4ccccc4)C[C@@](O)([C@@H](OC(=O)c4cccc(N=[N+]=[N-])c4)[C@H]21)C3(C)C` [MC-134-239, 2-(m-azidobenzoyl-4-xanthyl)PT], in the assay with 116/VM46, the midpoint of inhibition, the IC50, lay at 135 nM and the R/S ratio is reported as 8.03. For the same compound, the “anal/PT (beside Tubulin Data)” value with Tubulin worked out at 42. Besides, in the assay on HCT116, the midpoint of inhibition, the IC50, lay at 16.8 nM; the “anal/PT (beside HCT116 and 116/VM46)” value amounted to 11.02.
The like results for `CC(=O)OC1C(=O)C2(C)C(O)CC3OCC3(OC(=O)C3CC3)C2C(OC(=O)c2ccc(Cl)cc2Cl)C2(O)CC(OC(=O)C(O)C(NC(=O)c3ccccc3)c3ccccc3)C(C)=C1C2(C)C` (stereo not shown) [MC-134-247, 2-(2,4-dichlorobz)-4-cyclopropylCO-PT] were, in that order, 76.6 nM, 30.64, 0.7, 2.5 nM and 1.09.
